How the values were obtained:
[1] = test system: tau accumulated in the brain with AD; assay: In vitro autoradiography using autopsied brain tissue of Alzheimer's disease patient; format: binding, human
Protocol: (Evaluation 1) In Vitro Autoradiography Using Autopsied Brain Tissue of Alzheimer's Disease Patient (1) In Vitro Autoradiography
Autopsied brain tissue sections of an Alzheimer's disease (AD) patient (sections from a frontal lobe site and a temporal lobe site, 6 μm) were used, which were provided from Graduate School of Medicine, Kyoto University and National Cerebral and Cardiovascular Center Hospital. Deparaffinization treatment was performed by washing with xylene (15 min×2), ethanol (1 min×2), a 90 vol % aqueous ethanol solution (1 min×1), an 80 vol % aqueous ethanol solution (1 min×1), a 70 vol % aqueous ethanol solution (1 min×1), and purified water (2.5 min×2). A 10 vol % aqueous ethanol solution of each radioactive iodine-labeled BIP derivative compound (370 kBq/mL) obtained by the method shown in Example 7 was added thereto, and the tissue sections were incubated at room temperature for 2 hours. The tissue sections were washed with a 50 vol % aqueous ethanol solution (1 hr×1), then exposed to an imaging plate (BAS-SR2025 manufactured by Fujifilm Corp.), and analyzed using a bioimaging analyzer (bioimaging analyzer BAS-5000 manufactured by Fujifilm Corp.). Multi Gauge manufactured by Fujifilm Corp. was used in quantitative analysis.
FIGS. 5E and 5F show the results obtained using [^125I]BIP-NMe2. FIGS. 5G and 5H show the results obtained using [^125I]BIP-OMe. FIGS. 5I and 5J show the results obtained using [^125I]BIP-Me. FIGS. 5E, 5G, and 5I show the results obtained using the brain tissue section of the frontal lobe. FIGS. 5F, 5H, and 5J show the results obtained using the brain tissue section of the temporal lobe.
Tau and Aβ were immunostained using sections adjacent to the autopsied AD brain tissue sections used in autoradiography. An anti-phosphorylated tau monoclonal antibody (AT8, manufactured by Thermo Fisher Scientific Inc.) was used as a primary antibody in the immunostaining of tau, and an anti-Aβ1-42 monoclonal antibody (BC05, manufactured by Wako Pure Chemical Industries, Ltd.) was used as a primary antibody in the immunostaining of Aβ. Deparaffinization treatment was performed by washing with xylene (15 min×2), ethanol (1 min×2), a 90 vol % aqueous ethanol solution (1 min×1), an 80 vol % aqueous ethanol solution (1 min×1), a 70 vol % aqueous ethanol solution (1 min×1), and purified water (2.5 min×2). The antigens were retrieved by autoclaving (15 min) in a 0.01 mol/L citrate buffer solution (pH 6.0) and formic acid treatment (5 min). The tissue sections were washed with running water (5 min) and then washed with PBS-Tween 20 (2 min×1). The tissue sections were reacted with primary antibody solutions at room temperature for 1 hour and then washed with PBS-Tween 20 (5 min×3). The tissue sections were reacted with Histofine Simple Stain MAX-PO (MULTI) (manufactured by Nichirei Biosciences Inc.) at room temperature for 30 minutes and then washed with PBS-Tween 20 (3 min×3) and TBS (5 min×1). Finally, the tissue sections were reacted with a DAB solution at room temperature for 1 minute. The tissue sections were washed with distilled water (1 min×1) to terminate the reaction. The brain tissue sections were mounted on slides and then observed under a microscope (BZ-9000 manufactured by Keyence Corporation).
FIGS. 5A and 5B show the results obtained using the brain tissue section of the frontal lobe. FIGS. 5C and 5D show the results obtained using the brain tissue section of the temporal lobe. FIGS. 5A and 5C show the results of immunostaining with the antibody against tau. FIGS. 5B and 5D show the results of immunostaining with the antibody against Aβ.

[2] = Evaluation of in vivo radioactivity distribution in normal mouse; conditions: normal ddY male mice, tail vein; for radioactivity distribution, Blood / radioactivity distribution, Brain / radioactivity distribution, Heart / radioactivity distribution, Intestine / radioactivity distribution, Kidney / radioactivity distribution, Liver / radioactivity distribution, Lung / radioactivity distribution, Pancreas / radioactivity distribution, Spleen / radioactivity distribution, Stomach / radioactivity distribution, Thyroid gland: mean (SD)
Protocol: (Evaluation 2) Evaluation of In Vivo Radioactivity Distribution in Normal Mouse
Each compound of [^125I]BIP-NMe2, [^125I]BIP-OMe, and [^125I]BIP-Me synthesized according to the method shown in Example 7 was diluted with saline containing 10 vol % ethanol and 0.1 vol % Tween 80. Each radioactive iodine-labeled BIP derivative compound was administered to a group of 5-week-old ddY male mice (26 to 28 g; each group involved 5 mice) from the tail veins thereof at 19.6 to 29.4 kBq (100 μL) per mouse. After 2, 10, 30, or 60 minutes, the mice were slaughtered. After blood collection, the organs were taken out, and their weights and radioactivity were measured.
In Tables 2 to 4, the numerical values shown in the column “Time after administration” are means of % ID for the stomach and the thyroid gland and means of % ID/g for the other tissues with standard deviation (SD) shown in parenthesis.

COc1ccn2c(c1)nc1cc([125I])ccc12 [[^125I]BIP-OMe, 7-[^125I]iodo-3-methoxypyrido[1,2-a]benzimidazole]
radioactivity accumulation in the brain tissue section of the frontal lobe ([1]; AD patient autopsied brain section, frontal lobe, 370 kBq/mL, 2 hours room temperature): none | radioactivity accumulation in the brain tissue section of the temporal lobe ([1]; AD patient autopsied brain section, temporal lobe, 370 kBq/mL, 2 hours room temperature): exhibited radioactivity accumulation in only the brain tissue section of the temporal lobe | nonspecific binding to the brain white matter ([1]; AD patient autopsied brain sections): low | visualization of tau (autoradiography compared with tau and Aβ immunostaining) ([1]; AD patient temporal lobe section, adjacent sections immunostained (AT8, BC05)): clearly visualizes tau accumulated in the brain with AD | clearance from the brain [2]: rapid clearance from the brain | transfer to the brain early after administration [2]: high transfer to the brain | radioactivity distribution, Blood ([2]; 2 min after administration): 5.41(0.40) % ID/g | radioactivity distribution, Brain ([2]; 2 min after administration): 4.30(0.41) % ID/g | radioactivity distribution, Heart ([2]; 2 min after administration): 5.17(0.27) % ID/g | radioactivity distribution, Intestine ([2]; 2 min after administration): 2.94(0.15) % ID/g | radioactivity distribution, Kidney ([2]; 2 min after administration): 8.66(0.73) % ID/g | radioactivity distribution, Liver ([2]; 2 min after administration): 17.8(3.98) % ID/g | radioactivity distribution, Lung ([2]; 2 min after administration): 6.09(0.34) % ID/g | radioactivity distribution, Pancreas ([2]; 2 min after administration): 4.38(0.30) % ID/g | radioactivity distribution, Spleen ([2]; 2 min after administration): 3.60(1.10) % ID/g | radioactivity distribution, Stomach ([2]; 2 min after administration): 2.30(0.33) % ID | radioactivity distribution, Thyroid gland ([2]; 2 min after administration): 0.10(0.05) % ID | radioactivity distribution, Blood ([2]; 10 min after administration): 3.39(0.12) % ID/g | radioactivity distribution, Brain ([2]; 10 min after administration): 0.71(0.14) % ID/g | radioactivity distribution, Heart ([2]; 10 min after administration): 1.94(0.18) % ID/g | radioactivity distribution, Intestine ([2]; 10 min after administration): 8.99(1.43) % ID/g | radioactivity distribution, Kidney ([2]; 10 min after administration): 7.38(1.46) % ID/g | radioactivity distribution, Liver ([2]; 10 min after administration): 16.2(1.80) % ID/g | radioactivity distribution, Lung ([2]; 10 min after administration): 3.33(0.24) % ID/g | radioactivity distribution, Pancreas ([2]; 10 min after administration): 1.59(0.18) % ID/g | radioactivity distribution, Spleen ([2]; 10 min after administration): 3.16(0.18) % ID/g | radioactivity distribution, Stomach ([2]; 10 min after administration): 5.47(0.88) % ID | radioactivity distribution, Thyroid gland ([2]; 10 min after administration): 0.04(0.02) % ID | radioactivity distribution, Blood ([2]; 30 min after administration): 2.24(0.27) % ID/g | radioactivity distribution, Brain ([2]; 30 min after administration): 0.17(0.02) % ID/g | radioactivity distribution, Heart ([2]; 30 min after administration): 0.99(0.08) % ID/g | radioactivity distribution, Intestine ([2]; 30 min after administration): 16.8(4.30) % ID/g | radioactivity distribution, Kidney ([2]; 30 min after administration): 5.74(2.30) % ID/g | radioactivity distribution, Liver ([2]; 30 min after administration): 7.25(1.28) % ID/g | radioactivity distribution, Lung ([2]; 30 min after administration): 1.76(0.11) % ID/g | radioactivity distribution, Pancreas ([2]; 30 min after administration): 0.86(0.22) % ID/g | radioactivity distribution, Spleen ([2]; 30 min after administration): 1.07(0.08) % ID/g | radioactivity distribution, Stomach ([2]; 30 min after administration): 6.62(1.28) % ID | radioactivity distribution, Thyroid gland ([2]; 30 min after administration): 0.01(0.00) % ID | radioactivity distribution, Blood ([2]; 60 min after administration): 1.27(0.15) % ID/g | radioactivity distribution, Brain ([2]; 60 min after administration): 0.08(0.03) % ID/g | radioactivity distribution, Heart ([2]; 60 min after administration): 0.52(0.08) % ID/g | radioactivity distribution, Intestine ([2]; 60 min after administration): 20.1(4.03) % ID/g | radioactivity distribution, Kidney ([2]; 60 min after administration): 2.20(1.20) % ID/g | radioactivity distribution, Liver ([2]; 60 min after administration): 4.61(0.35) % ID/g | radioactivity distribution, Lung ([2]; 60 min after administration): 1.21(0.30) % ID/g | radioactivity distribution, Pancreas ([2]; 60 min after administration): 0.53(0.13) % ID/g | radioactivity distribution, Spleen ([2]; 60 min after administration): 0.63(0.10) % ID/g | radioactivity distribution, Stomach ([2]; 60 min after administration): 5.34(1.23) % ID | radioactivity distribution, Thyroid gland ([2]; 60 min after administration): 0.01(0.00) % ID

From US10081630B2, “Radioactive halogen-labeled pyrido [1,2-A] benzimidazole derivative compound” (KYOTO UNIVERSITY, priority 2015, dated 2018)
